# According to US9708628B2, “Cationic lipid having improved intracellular kinetics” (NOF CORPORATION, priority 2011, dated 2017):
# Experiments:
# HT1080 cells [1] = assay: Inhibitory effect of GA (ginkgolic acid) on gene expression; assay type: cell-based; details: 0, 25, 50, 100 μM GA
# Description: MENDs of B-2-4 (Example 4), B-2 (Example 1) were prepared according to [Experimental Example 16], [Experimental Example 1] (1), (2). For the preparation, PEG2000-DMG was used as PEG lipid, and MEND solutions corresponding to 0.55 mM of the lipid concentration were prepared.
# HT1080 cells were plated on a 3.5 cm cell culture dish at 4×10^4 cells/2 mL/dish 24 hr before, various MENDs were diluted with DMEM (FBS 10%+, Phenol red free) containing a final concentration of 200 μM of D-luciferin potassium and 0, 25, 50, 100 μM of GA (Calbiochem) to achieve 1.6 μg/2 mL/dish based on the pDNA amount and transfection was performed. According to the Kronos Dio package insert, the luminescence amount was measured for 2 min every 20 min and taken as the luciferase activity (RLU/2 min).
# [2] = Electron microscope observation by staining method; assay type: physicochemical; details: phosphotungstic acid staining
# Description: MENDs of B-2 (Example 1) and B-2-4 (Example 4) were prepared according to [Experimental Example 1] (1), (2) and [Experimental Example 15]. For the preparation, PEG2000-DMG was used as PEG lipid, and MEND solutions corresponding to 1.38 mM of the lipid concentration were prepared. A 50% sucrose solution (pH 5.3) (5 mL) was added to a centrifugation tube, on which a 10% sucrose solution (pH 5.3) (5 mL) was layered, and a MEND solution (1.5 mL) was further overlaid to form an discontinuous density gradient. Purification was performed by ultracentrifugation (110000 g, 2 h, 25° C.) (Optima™ L-90K Ultracentrifuge, Sw41Ti, BECKMAN). The interface (4 ml) of sucrose density 10% and 50% was recovered, and sucrose was removed by ultrafiltration (1000 g, 3 min, 25° C.) to give a sample solution. A 2-fold diluted sample solution was adsorbed to a 400 mesh carbon film TEM grid, which was absorbed by a filter paper. A 2% phosphotungstic acid solution (pH 7.0) was added and the mixture was stood for 10 seconds. For observation, a transmission electron microscope (JEM-1200EX, JEOL Ltd.) was used. Accelerating voltage was set to 80 kV, and images were taken by a CCD camera (VELETA, JEOL Ltd.).
# HT1080 cells [3] = assay: Intracellular kinetics (nuclear transport), confocal microscopy; assay type: cell-based; details: 3 hr after transfection
# From the text: For MEND preparation, Rhodamine-labeled pDNA prepared by the method of [Experimental Example 1] (4) was used. For preparation of MEND encapsulating the rhodamine-labeled pDNA, the pDNA solution described in [Experimental Example 1] (1) was completely replaced by rhodamine-labeled pDNA. In addition, the lipid constituting MEND was labeled with fluorescence by the method described in [Experimental Example 1] (3). MENDs having a composition of B-2-4 (Example 4):DOPE:Chol=3:3:4, B-2 (Example 1):SOPE:Chol=5:3:2 were prepared by the method described in [Experimental Example 1] (2). For the preparation, PEG2000-DMG was used as PEG lipid, and MEND solutions corresponding to 0.55 mM of the lipid concentration were prepared.
# HT1080 cells were plated on a glass bottom dish at 5×10^4 cells/2 mL/dish 24 hr before. MEND was diluted with DMEM (FBS 10%+) to achieve pDNA 1.6 μg/2 mL and transfected into cells. After 3 hr, hoechst33342 (1 μL) was added and, 10 min later, the cells were washed twice with heparin solution (20 units/mL, 2 mL). Krebs buffer (1 mL) was added, and the image was obtained by a confocal laser scan microscope.
# HT1080 cells [4] = assay: Decapsulation efficiency over time (3, 6, 9, 12 hr); assay type: cell-based; details: 3, 6, 9, 12 hr after transfection
# From the text: For MEND preparation, Rhodamine-labeled pDNA prepared by the method of [Experimental Example 1] (4) was used. For preparation of MEND encapsulating the rhodamine-labeled pDNA, 50% of the pDNA solution described in [Experimental Example 1] (1) was replaced by the rhodamine-labeled pDNA. In addition, the lipid constituting the MEND was labeled with fluorescence by the method described in [Experimental Example 1] (3). MENDs having a composition of B-2-4 […]:DOPE:Chol=3:3:4, B-2 […]:SOPE:Chol=5:3:2 were prepared by the method described in [Experimental Example 1] (2). For the preparation, PEG2000-DMG was used as PEG lipid, and MEND solutions corresponding to 0.55 mM of the lipid concentration were prepared.
# HT1080 cells were plated on a glass bottom dish at 5×10^4 cells/2 mL/dish 24 hr before. MEND was diluted with DMEM (FBS 10%+) to achieve pDNA 1.6 μg/2 mL and transfected into cells. 3, 6, 9, 12 hr later, the cells were washed twice with heparin solution (20 units/mL, 2 mL), Krebs buffer (1 mL) was added, and the images at 3, 6, 9, 12 hr after the transfection were obtained by a confocal laser scan microscope.
# Rhodamine-labeled pDNA and lipid membrane of MEND were shown in pseudo colors of red and green, respectively. The decapsulation efficiency was calculated according to the following formula.
# HT1080 cells [5] = assay: Influence of endosomal acidification inhibitor BafA1 (Kronos Dio); assay type: cell-based; details: 0.5 μM BafA1
# Description: MENDs of B-2-4 (Example 4), B-2 (Example 1) were prepared according to [Experimental Example 1] (1), (2), [Experimental Example […]]. For the preparation, PEG2000-DMG was used as PEG lipid, and MEND solutions corresponding to 0.55 mM of the lipid concentration were prepared.
# HT1080 cells were plated on a 3.5 cm cell culture dish at 4×10^4 cells/2 mL/dish 24 hr before. The medium was changed to DMEM (FBS 10%+) containing 0.5 μM BafA1 (Bafilomycin A1) 30 min before transfection. 30 min later, various MENDs were added to the dish at 1.6 μg/2 mL/dish based on the pDNA amount. 3 hr after the transfection, the medium was changed to DMEM (FBS 10%+, Phenol red free) containing a final concentration 200 μM of D-luciferin potassium. According to the Kronos Dio package insert, the luminescence amount was measured for 2 min every 20 min and taken as the luciferase activity (RLU/2 min).
smiles,measurement,setting,value
CC1=C(/C=C/C(C)=C/C=C/C(C)=C/C(=O)OCCCN(C)CCSSCCN(C)CCCOC(=O)/C=C(C)/C=C/C=C(C)/C=C/C2=C(C)CCCC2(C)C)C(C)(C)CCC1 [Example B-2-4],inhibitory effect of GA on gene expression activity,HT1080 cells [1],higher inhibitory effect on B-2-4 than on B-2
same,structure of MEND by transmission electron microscope,[2],structure coated with a monolayer lipid membrane
same,intracellular localization,HT1080 cells [3],accumulate near the nucleus
same,decapsulation efficiency,HT1080 cells [4],gradual decapsulation with the passage of time
same,activity under endosomal acidification inhibition using BafA1,HT1080 cells [5],inhibited
CCCCCCCCCCCCCC(=O)OCCCN(C)CCSSCCN(C)CCCOC(=O)CCCCCCCCCCCCC [Example B-2],inhibitory effect of GA on gene expression activity,HT1080 cells [1],higher inhibitory effect on B-2-4 than on B-2
same,structure of MEND by transmission electron microscope,[2],structure coated with a monolayer lipid membrane
same,intracellular localization,HT1080 cells [3],diffused in the cell
same,decapsulation efficiency,HT1080 cells [4],good decapsulation from early stages
same,activity under endosomal acidification inhibition using BafA1,HT1080 cells [5],inhibited
